# Laboratory results published in patent publication US7101890B2, “Benzazepine derivatives, drugs containing these and use of the same for producing drugs” (priority 1996, dated 2006).
# Target: acetylcholine esterase (Homo sapiens, UniProt P06276)
# Test: Inhibition of acetylcholine esterase, modified method of Ellmann, human serum
# Assay type: biochemical
# Conditions: ACHE inhibition; human serum from a pool of 10 test subjects; 37° C., pH 7.8; compounds of general formula (I)
# Protocol: The values were given as a percentage of the comparison sample and the inhibiting concentration (IC^50) was calculated from the course of the curve.
# Chain of acetylcholine esterase (P06276 29-602): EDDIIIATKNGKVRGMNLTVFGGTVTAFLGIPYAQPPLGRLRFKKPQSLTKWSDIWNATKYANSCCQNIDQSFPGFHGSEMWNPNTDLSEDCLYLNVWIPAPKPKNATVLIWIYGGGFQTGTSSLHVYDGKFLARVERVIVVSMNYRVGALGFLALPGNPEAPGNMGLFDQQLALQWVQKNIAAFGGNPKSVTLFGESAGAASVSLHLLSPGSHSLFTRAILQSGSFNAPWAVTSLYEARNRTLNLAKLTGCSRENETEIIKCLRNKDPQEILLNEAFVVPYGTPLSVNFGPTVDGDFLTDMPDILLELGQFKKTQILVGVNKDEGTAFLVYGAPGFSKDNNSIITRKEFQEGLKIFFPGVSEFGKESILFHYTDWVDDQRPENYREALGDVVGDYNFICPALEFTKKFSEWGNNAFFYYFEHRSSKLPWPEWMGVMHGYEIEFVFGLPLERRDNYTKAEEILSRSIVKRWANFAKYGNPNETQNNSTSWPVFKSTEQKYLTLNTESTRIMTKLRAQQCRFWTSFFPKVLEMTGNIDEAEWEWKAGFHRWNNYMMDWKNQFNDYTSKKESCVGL
row,Structure (SMILES),IC50 in μMol
1,COC(=O)CCC(=O)N1CCC23C=CC(O)CC2Oc2c(OC)cc(Br)c(c23)C1 (racemic) [Substance 61],insol.
2,"COc1ccc2c3c1OC1CC(=NO)C=CC31CCN(C)C2 (single isomer, unassigned) [Substance 77, narwedine Oxime]",insol.
3,"COc1ccc2c3c1OC1CC(O)C=CC31CC[N+](C)([O-])C2 (single isomer, unassigned; (-)) [Substance 98, (−)-Galanthamine-N-oxide]",insol.
4,COc1cc(Br)c2c3c1OC1CC(O)C=CC31CCN(CC#N)C2 (racemic) [Substance 52],insol.
5,COc1ccc2c3c1OC1CC(=NNC(N)=O)C=CC31CCN(C)C2 (racemic) [Substance 87],insol.
6,COc1ccc2c3c1OC1CC(=NN(C)C)C=CC31CCN(C)C2 (racemic) [Substance 82],insol.
7,"COc1ccc2c3c1O[C@H]1CC(=NO)C=C[C@@]31CCN(C)C2 [Substance 76, narwedine Oxime]",insol.
8,COC(=O)N1CCC23C=CC(O)CC2Oc2c(OC)cc(Br)c(c23)C1 (racemic) [Substance 62],insol.
9,CCCCCCN1CCC23C=CC(O)CC2Oc2c(OC)cc(Br)c(c23)C1 (racemic) [Substance 49],insol.
10,C#CCN1CCC23C=CC(O)CC2Oc2c(OC)cc(Br)c(c23)C1 (racemic) [Substance 50],insol.

# Same assay, conditions: ACHE inhibition; human serum from a pool of 10 test subjects; 37° C., pH 7.8; compounds of general formula (I); read-out: IC50 in μMol
row,Structure (SMILES),IC50
1,"CCCCNC(=S)OC1C=CC23CCN(C)Cc4ccc(OC)c(c42)OC3C1 (single isomer, unassigned; (+)) [Substance 24, (+)-Galanthamin-n-butylthiocarbamate]",85 µM

# Same assay, conditions: ACHE inhibition; human serum pool; compounds of formula (II); read-out: IC50
row,Structure (SMILES),IC50
1,"COc1ccc2c(c1O)C13C=C[C@@H](O)CC1N(CC3)C2 (stereo partly shown) [Substance 115, 35-4,4a-dihydro-9-methoxy-10-hydroxy (3H,6H) (5,10b) ethanophenanthridine-3-ol]",> 150 µM

# System: not given
# Test: not given
# Conditions: not given
row,Structure (SMILES),melting point
1,Cc1ccc(N2CC3CC2CN3)cc1 (stereo not shown),130 to 140 °C
2,O=[N+]([O-])c1ccc(N2CC3CC2CN3Cc2ccccc2)cc1 (stereo not shown),170 to 173 °C
3,c1ccc(N2CC3CC2CN3)cc1 (stereo not shown),120 to 130 °C
4,Fc1ccc(N2CC3CC2CN3)cc1 (stereo not shown),120 to 130 °C
5,Clc1ccc(N2CC3CC2CN3)cc1 (stereo not shown),120 to 130 °C
6,O=[N+]([O-])c1ccccc1N1CC2CC1CN2Cc1ccccc1 (stereo not shown),107 to 108 °C
7,COc1cc(Br)c2c3c1OC1C[C@@H](O)C=CC31CCN(C)C2=O (mixture of isomers),188 to 189 °C
